Results as given in patent US7741314B2, “2-Methylene-(20R,25S)-19,27-Dinor-(22E)-Vitamin D Analogs” (Wisconsin Alumni Research Foundation, priority 2006, dated 2010).
Read-outs that look alike come from different tables or passages of the source.

Key:
[1] = tested on: 24-hydroxylase (24Ohase) gene promoter in ROS 17/2.8 (bone) cells; assay: In vitro transcription assay (luciferase reporter); format: cell-based; conditions: FIG. 3; for EC50: ROS 17/2.8 cells, 24Ohase promoter-luciferase, 16 h, read-out: EC50, transcriptional activity in bone cells
Protocol: Transcription activity was measured in ROS 17/2.8 (bone) cells that were stably transfected with a 24-hydroxylase (24Ohase) gene promoter upstream of a luciferase reporter gene (Arbour et al., 1998). Cells were given a range of doses. Sixteen hours after dosing the cells were harvested and luciferase activities were measured using a luminometer.
RLU=relative luciferase units.

[2] = tested on: vitamin D-deficient rats; assay: Bone calcium mobilization (serum calcium); format: in vivo, rat; conditions: FIG. 4
Protocol: (§1) Male, weanling Sprague-Dawley rats were placed on Diet 11 (0.47% Ca) diet+AEK for one week followed by Diet 11 (0.02% Ca)+AEK for 3 weeks. The rats were then switched to a diet containing 0.47% Ca for one week followed by two weeks on a diet containing 0.02% Ca. Dose administration began during the last week on 0.02% calcium diet. Four consecutive ip doses were given approximately 24 hours apart. Twenty-four hours after the last dose, blood was collected from the severed neck and the concentration of serum calcium determined as a measure of bone calcium mobilization. The first 10 cm of the intestine was also collected for intestinal calcium transport analysis using the everted gut sac method.

[3] = tested on: Human promyelocytic leukemia (HL60) cells; assay: HL-60 differentiation (nitro blue tetrazolium reduction); format: cell-based; conditions: FIG. 2; for EC50: HL-60 cells, four days after treatment, read-out: EC50, HL-60 cell differentiation
Protocol: The study drugs were dissolved in ethanol and the concentrations determined using UV spectrophotometry. Serial dilutions were prepared so that a range of drug concentrations could be tested without changing the final concentration of ethanol (≦0.2%) present in the cell cultures.
Human promyelocytic leukemia (HL60) cells were grown in RPMI-1640 medium containing 10% fetal bovine serum. The cells were incubated at 37° C. in the presence of 5% CO2.
HL60 cells were plated at 1.2×10^5 cells/ml. Eighteen hours after plating, cells in duplicate were treated with drug. Four days later, the cells were harvested and a nitro blue tetrazolium reduction assay was performed (Collins et al., 1979; J. Exp. Med. 149:969-974). The percentage of differentiated cells was determined by counting a total of 200 cells and recording the number that contained intracellular black-blue formazan deposits. Verification of differentiation to monocytic cells was determined by measuring phagocytic activity (data not shown).

[4] = tested on: vitamin D-deficient rats; assay: Intestinal calcium transport (everted gut sac method); format: in vivo, rat; conditions: FIG. 5; for intestinal calcium transport: everted gut sac
Protocol: as §1

[5] = target: T1, full-length recombinant rat vitamin D receptor (Rattus norvegicus, UniProt P13053); assay: Vitamin D receptor binding, competition with [3H]-1,25(OH)2D3; conditions: FIG. 1
T1 construct: Full-length recombinant rat receptor was expressed in E. coli; histidine tag (C); made in house; host or cells: E. coli BL21 (DE3) Codon Plus RIL
T1 sequence (P13053 1-423): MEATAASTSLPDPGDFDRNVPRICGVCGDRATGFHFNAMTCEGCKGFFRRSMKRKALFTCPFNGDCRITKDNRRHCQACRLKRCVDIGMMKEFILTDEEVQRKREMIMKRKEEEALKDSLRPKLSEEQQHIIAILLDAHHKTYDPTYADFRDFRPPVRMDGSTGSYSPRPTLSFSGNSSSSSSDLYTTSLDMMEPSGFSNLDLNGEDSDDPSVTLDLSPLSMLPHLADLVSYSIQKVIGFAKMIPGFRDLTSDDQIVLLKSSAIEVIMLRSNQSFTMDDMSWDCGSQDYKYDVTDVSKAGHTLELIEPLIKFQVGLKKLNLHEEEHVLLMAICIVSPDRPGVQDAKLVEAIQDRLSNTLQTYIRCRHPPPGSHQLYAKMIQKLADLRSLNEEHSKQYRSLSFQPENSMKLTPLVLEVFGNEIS
Protocol: Full-length recombinant rat receptor was expressed in E. coli BL21 (DE3) Codon Plus RIL cells and purified to homogeneity using two different column chromatography systems. The first system was a nickel affinity resin that utilizes the C-terminal histidine tag on this protein. The protein that was eluted from this resin was further purified using ion exchange chromatography (S-Sepharose Fast Flow). Aliquots of the purified protein were quick frozen in liquid nitrogen and stored at −80° C. until use. For use in binding assays, the protein was diluted in TEDK50 (50 mM Tris, 1.5 mM EDTA, pH7.4, 5 mM DTT, 150 mM KCl) with 0.1% Chaps detergent. The receptor protein and ligand concentration were optimized such that no more than 20% of the added radiolabeled ligand was bound to the receptor.
Radiolabeled and unlabeled ligands were added to 100 mcl of the diluted protein at a final ethanol concentration of ≦10%, mixed and incubated overnight on ice to reach binding equilibrium. The following day, 100 mcl of hydroxylapatite slurry (50%) was added to each tube and mixed at 10-minute intervals for 30 minutes. The hydroxylapaptite was collected by centrifugation and then washed three times with Tris-EDTA buffer (50 mM Tris, 1.5 mM EDTA, pH 7.4) containing 0.5% Titron X-100. […] Total binding was determined from the tubes containing only radiolabeled ligand.

SMILES | EC50 [1] [nM] | serum calcium levels ([2]; all dosages, rats on low calcium diet (0.02%)) | EC50 [3] [nM] | intestinal calcium transport ([4]; 260 pmol/day) | transcriptional activity in bone cells compared to 1α,25-dihydroxyvitamin D3 ([1]; in words) | bone calcium mobilization (serum calcium) ([2]; 260 pmol/day ip for 4 consecutive days, rats on low calcium diet (0.02%)) | bone calcium mobilization (serum calcium) ([2]; 7020 pmol/day, rats on low calcium diet (0.02%)) | bone calcium mobilization activity compared to 1,25(OH)2D3 ([2]; in words) | Ki ([5]; full-length recombinant rat VDR) [nM] | binding to the receptor compared to 1,25-(OH)2D3 ([5]; in words) | EC50 ([3]; Homo sapiens, 96 h) [nM] | potency on HL-60 cell differentiation compared to 1,25(OH)2D3 ([3]; in words) | intestinal calcium transport ([4]; 7020 pmol/day) | intestinal calcium transport activity compared to 1,25(OH)2D3 ([4]; in words)
C=C1/C(=C\C=C2/CCC[C@]3(C)[C@@H]([C@H](C)CCCC(C)(C)O)CC[C@@H]23)C[C@@H](O)C[C@@H]1O [1,25(OH)2D3, 1α,25-dihydroxyvitamin D3, reference compound] | 0.2 | increased serum calcium levels at all dosages | 2 | promotes a significant increase | – | – | – | – | – | – | – | – | – | –
C=C1[C@H](O)CC(=C/C=C2\CCC[C@]3(C)[C@@H]([C@H](C)/C=C/C[C@H](C)O)CC[C@@H]23)C[C@H]1O [REN, 2-methylene-(20R,25S)-19,27-dinor-(22E)-1α,25-dihydroxyvitamin D3] | 0.1 | – | – | promotes intestinal calcium transport only slightly | about the same transcriptional activity | did not result in mobilization of bone calcium | without any substantial effect | very little bone calcium mobilization activity | 0.4 | bound equally to the receptor | 1 | as potent as 1,25(OH)2D3 | significant intestinal calcium transport activity | very little activity
